{
  "source": "patent US20200254041A1",
  "about": "“RAPID ONSET AND EXTENDED ACTION PLANT-BASED AND SYNTHETIC CANNABINOID FORMULATIONS” (RECEPTOR HOLDINGS, INC., priority 2017, published 2020)",
  "key": {"[1]": {"conditions": "cited from earlier work"}, "[2]": {"test": "Cannabis/SNAC oral rat pharmacokinetic (PK) study", "assay_type": "in vivo", "conditions": "rats; for AUC0-Tlast increase over the cannabis alone group / Cmax increase over the cannabis alone group: 500 mg/kg SNAC and 50 mg/kg cannabis extract vs 25 mg/kg cannabis alone; for AUC compared to the cannabis alone group: 25 mg/kg cannabis extract", "procedure": "Summary of cannabis/SNAC oral rat pharmacokinetic (PK) study.\nMethods. Animals were dosed on Day 1 and a series of blood samples were collected over a period of 4 hours post dose for pharmacokinetic evaluation. Animals were euthanized following collection of their last blood sample."}, "study participants [3]": {"system": "study participants", "test": "Onset and duration of action of orally administered cannabis/SNAC formulation (200 mg SNAC) vs cannabis-only control; participant-reported euphoria/dysphoria", "assay_type": "in vivo, human", "conditions": "200 mg SNAC in oral cannabis formulation", "procedure": "This study was designed to assess the utility of SNAC in enabling a rapid-acting oral form of cannabis.\nSelection of Participants. Six study participants were recruited to ingest cannabis formulations and record the onset, duration, and intensity of cannabis-induced euphoria and/or dysphoria.\n(§1) Formulations. The selected cannabis concentrate is commercially available and was provided to participants in an ethanol solution. The concentrate contains 8 mg THC per dose. It was selected because it contains a high percentage of THC, which provides a noticeable effect on user-reported “euphoria”.\n(§2) Methods. For the Control experiment, each participant mixed the cannabis concentrate with 15 ml (one tablespoon) of aqueous ethanol, and immediately swallowed the mixture.\n(§3) For both the Control experiment and the Test experiment, each participant recorded the time of dose administration, the time of onset of euphoria and/or dysphoria, and the observed level of euphoria and/or dysphoria in fifteen minute intervals for five hours following administration of the cannabis dose. Euphoria and dysphoria were reported using a scale value, in a range from 1-10."}, "study participants [4]": {"system": "study participants", "test": "Onset and duration of action of orally administered cannabis/SNAC formulation at a low SNAC dose (100 mg); participant-reported euphoria", "assay_type": "in vivo, human", "conditions": "100 mg SNAC in oral cannabis formulation", "procedure": "This study was designed to assess the utility of SNAC in enabling a rapid-acting oral form of cannabis at a low dose.\nSelection of Participants. Three study participants were recruited to ingest cannabis formulations and record the onset, duration, and intensity of cannabis-induced euphoria and/or dysphoria.\nas §1, §2, §3"}, "[5]": {"conditions": "cited from earlier work", "remark": "listed apart in the source"}, "[6]": {"conditions": "25 mg/kg cannabis extract with SNAC at either 250 or 500 mg/kg"}},
  "data": [
    {"smiles": "C=CC(C)(O)CCC=C(C)C", "note": "(stereo not shown) [Linalool]", "values": [
      {"measurement": "water solubility (in words)", "setting": "[1]", "value": "low water solubility"}
    ]},
    {"smiles": "Cc1cc(O)c2c(=O)c3c(O)cc(O)c4c5c(O)cc(O)c6c(=O)c7c(O)cc(C)c8c1c2c(c34)c(c78)c65", "note": "[Hypericin]", "values": [
      {"measurement": "water solubility (in words)", "setting": "[1]", "value": "insoluble in water"}
    ]},
    {"smiles": "C=C(C)[C@@H]1CCC(C)=C[C@H]1c1c(O)cc(CCCCC)cc1O", "note": "[CBD, cannabidiol]", "values": [
      {"measurement": "Cmax increase over cannabis alone", "setting": "[2]; 25 mg/kg cannabis extract with SNAC 250 mg/kg", "value": 2.9, "unit": "fold"},
      {"measurement": "Cmax increase over cannabis alone", "setting": "[2]; 25 mg/kg cannabis extract with SNAC 500 mg/kg", "value": 2.8, "unit": "fold"},
      {"measurement": "Cmax increase over cannabis alone", "setting": "[2]; [6]", "value": 2.8, "unit": "fold"},
      {"measurement": "AUC0-Tlast increase over the cannabis alone group", "setting": "[2]", "value": 22.1, "unit": "fold"},
      {"measurement": "Cmax increase over the cannabis alone group", "setting": "[2]", "value": 14.2, "unit": "fold"},
      {"measurement": "water solubility (in words)", "setting": "[1]", "value": "very low or no solubility in water"}
    ]},
    {"smiles": "C[C@@H]1O[C@@H](Oc2c(-c3ccc(O)c(O)c3)oc3cc(O)cc(O)c3c2=O)[C@H](O)[C@H](O)[C@H]1O", "note": "[Quercitrin]", "values": [
      {"measurement": "water solubility (in words)", "setting": "[1]", "value": "low water solubility"}
    ]},
    {"smiles": "O=C([O-])CCCCCCCNC(=O)c1ccccc1O.[Na+]", "note": "[SNAC, sodium N-[8-(2-hydroxybenzoyl)amino] caprylate]", "values": [
      {"measurement": "effect of the absorption enhancer on the duration of action of cannabis", "setting": "study participants [3]", "value": "no effect on the duration of action of cannabis"},
      {"measurement": "effect of the absorption enhancer on the duration of action of cannabis", "setting": "study participants [4]", "value": "no effect on the duration of action of cannabis"}
    ]},
    {"smiles": "COc1cc(/C=C/C(=O)CC(=O)/C=C/c2ccc(O)c(OC)c2)ccc1O", "note": "[Curcumin]", "values": [
      {"measurement": "aqueous solubility", "setting": "[1]", "value": "< 100", "unit": "µg/mL"}
    ]},
    {"smiles": "CC[C@]1(O)C[C@@H]2CN(CCc3c([nH]c4ccccc34)[C@@](C(=O)OC)(c3cc4c(cc3OC)N(C)[C@H]3[C@@](O)(C(=O)OC)[C@H](OC(C)=O)[C@]5(CC)C=CCN6CC[C@]43[C@@H]65)C2)C1", "note": "[Vinblastine]", "values": [
      {"measurement": "water solubility (in words)", "setting": "[1]", "value": "low water solubility"}
    ]},
    {"smiles": "COC(=O)[C@H]1[C@H]2C[C@@H]3c4[nH]c5cc(OC)ccc5c4CCN3C[C@H]2C[C@@H](OC(=O)c2cc(OC)c(OC)c(OC)c2)[C@@H]1OC", "note": "[Reserpine]", "values": [
      {"measurement": "water solubility (in words)", "setting": "[1]", "value": "low water solubility"}
    ]},
    {"smiles": "COc1ccc([C@@H]2CC(=O)c3c(O)cc(O[C@@H]4O[C@H](CO[C@@H]5O[C@@H](C)[C@H](O)[C@@H](O)[C@H]5O)[C@@H](O)[C@H](O)[C@H]4O)cc3O2)cc1O", "note": "[Hesperidin]", "values": [
      {"measurement": "water solubility (in words)", "setting": "[1]", "value": "low water solubility"}
    ]},
    {"smiles": "COc1cc(CNC(=O)CCCC/C=C/C(C)C)ccc1O", "note": "[Capsaicin]", "values": [
      {"measurement": "water solubility (in words)", "setting": "[1]", "value": "low water solubility"}
    ]},
    {"smiles": "Oc1ccc(C=Cc2cc(O)cc(O)c2)cc1", "note": "[Resveratrol]", "values": [
      {"measurement": "aqueous solubility", "setting": "[1]", "value": 30, "unit": "µg/mL"}
    ]},
    {"smiles": "CCCCCc1cc(O)c2c(c1)OC(C)(C)[C@@H]1CCC(C)=C[C@@H]21", "note": "[THC, delta-9-tetrahydrocannabinol]", "values": [
      {"measurement": "Cmax increase over cannabis alone", "setting": "[2]; [6]", "value": 1.4, "unit": "fold"},
      {"measurement": "AUC compared to the cannabis alone group", "setting": "[2]; 250 mg/kg SNAC group", "value": 1.1, "unit": "fold"},
      {"measurement": "AUC compared to the cannabis alone group", "setting": "[2]; 500 mg/kg SNAC group", "value": "lower"},
      {"measurement": "AUC compared to the cannabis alone group", "setting": "[2]; both SNAC groups (250 and 500 mg/kg)", "value": "comparable"},
      {"measurement": "AUC0-Tlast increase over the cannabis alone group", "setting": "[2]", "value": 6.3, "unit": "fold"},
      {"measurement": "Cmax increase over the cannabis alone group", "setting": "[2]", "value": 6.9, "unit": "fold"},
      {"measurement": "duration of action / effects", "setting": "[5]; after oral administration", "value": "4 to 6", "unit": "h"},
      {"measurement": "onset of action", "setting": "[5]; after oral administration", "value": "up to 1.5 hours"},
      {"measurement": "peak effect at", "setting": "[5]; after oral administration", "value": "2 to 4", "unit": "h"},
      {"measurement": "absorbed", "setting": "[5]; after single oral doses", "value": "90-95%"},
      {"measurement": "administered dose that reaches the systemic circulation", "setting": "[5]; oral, first pass hepatic metabolism and poor aqueous solubility", "value": "4-20%"}
    ]},
    {"smiles": "C[C@@H]1O[C@@H](OC[C@H]2O[C@@H](Oc3c(-c4ccc(O)c(O)c4)oc4cc(O)cc(O)c4c3=O)[C@H](O)[C@@H](O)[C@@H]2O)[C@H](O)[C@H](O)[C@H]1O", "note": "[Rutin]", "values": [
      {"measurement": "water solubility (in words)", "setting": "[1]", "value": "low water solubility"}
    ]},
    {"smiles": "C[C@@H]1O[C@@H](O[C@H]2[C@H](Oc3cc(O)c4c(c3)O[C@H](c3ccc(O)cc3)CC4=O)O[C@H](CO)[C@@H](O)[C@@H]2O)[C@H](O)[C@H](O)[C@H]1O", "note": "[Naringin]", "values": [
      {"measurement": "water solubility (in words)", "setting": "[1]", "value": "low water solubility"}
    ]},
    {"smiles": "C=CCc1ccc(O)c(OC)c1", "note": "[Eugenol]", "values": [
      {"measurement": "water solubility (in words)", "setting": "[1]", "value": "low water solubility"}
    ]}
  ]
}
